Assay results as given in patent US11136291B2, “Antifungal compounds and uses thereof” (Dana-Farber Cancer Institute, Inc., priority 2016, dated 2021).
Values after ≈ are worked out from the molar mass of the structure shown.

Columns and labels:
[1] = tested on: PDRE-dependent luciferase gene transcription; assay type: cell-based, Saccharomyces cerevisiae; conditions: 40 μM ketoconazole; for Luciferase activity (5 μM + keto) (% DMSO + keto): 5 μM compound; for Luciferase activity (50 μM + keto) (% DMSO + keto): 50 μM compound
[2] = tested on: Saccharomyces cerevisiae DSY2094; test: Broth dilution MIC
Description: (§1) Antifungal susceptibility testing was carried out using broth dilution assays which examined effects of two-fold dilutions of compounds on cellular growth. The minimum inhibitory concentration (MIC) was defined as the drug concentration at which the optical density was equal to or decreased more than 50% from that of the drug-free culture.

[3] = tested on: Candida glabrata DSY562; test: Broth dilution MIC; conditions: Nakaseomyces glabratus
Description: as §1

[4] = tested on: Candida krusei DSY471; test: Broth dilution MIC; conditions: Pichia kudriavzevii, ATCC6258
Description: as §1

[5] = tested on: CgCDR1 transcription (CgPdr1 target); test: Transcription assay, quantitative real-time PCR of CgPdr1 target genes; assay type: cell-based, Candida glabrata
[6] = tested on: Candida tropicalis DSY472; test: Broth dilution MIC; conditions: ATCC75
Description: as §1

[7] = biological target: T1, CgGal11A KIX domain (Candida glabrata, UniProt Q6FRS9); test: Fluorescence polarization (FP) binding/competition assay, CgPdr1 AD30 with CgGal11A KIX; conditions: compared with iKIX1
T1 construct: other: compared with iKIX1; other: GST-CgGal11A KIX 3 μM, 30 nM FITC-CgPdr1 AD30; Kd of CgPdr1 AD30 for CgGal11A KIX domain; other: FP titration, 30 nM FITC-CgPdr1 AD30; Kd of the CgPdr1 AD for the CgGal11A KIX domain; apparent Ki; fused on or other part: N-terminal His6-GST tag
Description: A fluorescein-tagged 30 amino acid C-terminal activation domain of CgPdr1 (FITC-[…] (SEQ ID NO: 1)) CgPdr1 AD30 was purchased as a synthetic peptide from Pepide2.0. The CgGal11A KIX domain was expressed as a His6-GST fusion protein and purified by affinity chromatography with Ni-NTA resin (Qiagen) and size exclusion chromatography (Sephadex 75, Pharmacia). […] For small molecule screening, fluorescein-CgPdr1 AD30 was held at a concentration of 30 nM and the GST-tagged CgGal11A KIX was at a concentration of 1 μM (above the Kd). The screen was carried out in duplicate and the volume in each well was 25 μL.
To measure the dissociation constant (Kd) of CgPdr1 AD30, FITC labeled CgPdr1 AD30 was held at a concentration of 30 nM and the GST-tagged CgGal11A KIX was prepared with concentrations ranging from 0 to 300 μM. The IC50 for iKIX-1 binding was measured with GST-tagged CgGal11A KIX held at a constant 3 μM concentration, iKIX-1 was titrated from 0 to 1000 μM and 30 nM FITC-labeled CgPdr1 AD30 was added subsequently with an HP D300 digital dispenser (Tecan Group. Maennerdorf, Switzerland). All experiments were carried out in duplicate and the s.d. is reported at each point on the plot.
The FP titration curve of the CgPdr1 AD30 was fitted to GraphPad Prisms (La Jolla, Calif., USA) One site-total binding equation (equation 1). […]

[8] = tested on: Candida glabrata DSY565; test: Broth dilution MIC; conditions: Nakaseomyces glabratus
Description: as §1

[9] = tested on: Candida parapsilosis DSY473; test: Broth dilution MIC; conditions: ATCC22019
Description: as §1

[10] = tested on: C. glabrata CgPDR1 wild-type and gain-of-function mutant strains; test: Spot plating on gradient plates with azole; assay type: cell-based, Candida glabrata
[11] = tested on: Candida albicans DSY2621; test: Broth dilution MIC
Description: as §1

[12] = tested on: Candida albicans SC5314; test: Broth dilution MIC
Description: as §1

[13] = tested on: C. glabrata; assay type: in vivo, mouse; conditions: single agent 100 mg/kg/day i.p.
[14] = tested on: C. glabrata PDR1 wild-type or PDR1^L280F strains; test: Galleria mellonella survival assay; assay type: in vivo; conditions: […]
[15] = tested on: C. glabrata; test: Mouse disseminated fungal burden model; assay type: in vivo; conditions: mouse, in vivo
[16] = tested on: C. glabrata adherence to CHO-Lec2 cells; test: Yeast adherence to epithelial CHO-Lec2 cells; conditions: PDR1^L280F mutant, 30 μM iKIX1 or 40 μM ketoconazole

T1 sequence (Q6FRS9 whole entry, looked up, the tested form may be a part): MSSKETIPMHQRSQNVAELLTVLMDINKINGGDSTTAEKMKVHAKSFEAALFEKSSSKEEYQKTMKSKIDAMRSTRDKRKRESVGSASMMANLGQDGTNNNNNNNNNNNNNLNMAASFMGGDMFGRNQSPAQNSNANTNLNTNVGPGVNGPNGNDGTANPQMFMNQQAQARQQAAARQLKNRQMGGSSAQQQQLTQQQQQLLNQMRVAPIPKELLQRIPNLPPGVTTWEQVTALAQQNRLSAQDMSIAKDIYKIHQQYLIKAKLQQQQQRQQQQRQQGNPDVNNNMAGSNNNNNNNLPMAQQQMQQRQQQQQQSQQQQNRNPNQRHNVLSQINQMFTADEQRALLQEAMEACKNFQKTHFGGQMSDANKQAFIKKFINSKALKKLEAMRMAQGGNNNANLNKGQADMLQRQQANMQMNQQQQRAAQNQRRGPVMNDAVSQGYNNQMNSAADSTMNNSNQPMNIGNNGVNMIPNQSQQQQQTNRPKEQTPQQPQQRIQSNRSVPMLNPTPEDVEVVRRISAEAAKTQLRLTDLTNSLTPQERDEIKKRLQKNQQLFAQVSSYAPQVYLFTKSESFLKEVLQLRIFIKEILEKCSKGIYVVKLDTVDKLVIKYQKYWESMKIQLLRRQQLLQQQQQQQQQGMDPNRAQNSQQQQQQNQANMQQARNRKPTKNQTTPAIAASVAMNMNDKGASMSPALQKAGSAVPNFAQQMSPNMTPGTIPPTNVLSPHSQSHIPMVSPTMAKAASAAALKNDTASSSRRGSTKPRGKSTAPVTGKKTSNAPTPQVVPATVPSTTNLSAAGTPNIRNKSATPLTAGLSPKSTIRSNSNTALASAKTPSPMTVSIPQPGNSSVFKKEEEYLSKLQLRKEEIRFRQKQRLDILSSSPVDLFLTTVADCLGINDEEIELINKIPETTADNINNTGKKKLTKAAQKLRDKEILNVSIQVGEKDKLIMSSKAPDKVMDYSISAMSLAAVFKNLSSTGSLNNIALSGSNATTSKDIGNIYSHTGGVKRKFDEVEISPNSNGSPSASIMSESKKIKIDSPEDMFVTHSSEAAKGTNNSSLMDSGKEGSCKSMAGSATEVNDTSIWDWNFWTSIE

| Structure (SMILES) | Luciferase activity (5 μM + keto) (% DMSO + keto) [1] [% DMSO + keto] | Luciferase activity (50 μM + keto) (% DMSO + keto) [1] [% DMSO + keto] | MIC [2] [µM] | MIC [3] [µM] | MIC [4] [µM] | MIC [6] [µM] | MIC [8] [µM] | MIC [9] [µM] | MIC [11] [µM] | MIC [12] [µM] | further results |
| --- | --- | --- | --- | --- | --- | --- | --- | --- | --- | --- | --- |
| N#CC(C(=O)NNC(=S)Nc1ccc(Cl)c(Cl)c1)c1ccccc1 (stereo not drawn) | 86 | 38 | – | – | – | – | – | – | – | – | – |
| COc1cc(NC(=S)NNC(=O)CC#N)cc(Cl)c1Cl | 52 | 26 | – | – | – | – | – | – | – | – | – |
| N#CCC(=O)NNC(=S)NCc1ccccc1 [Compound A02, reference compound] | – | – | > 100 | > 100 | > 100 | > 100 | > 100 | > 100 | > 100 | > 100 | ketoconazole-induced luciferase activity (in words) [1]: abolishes activity; ketoconazole-induced CgPdr1 target gene (CgCDR1) transcription (in words) ([5]; CgPDR1 wild-type strain (SFY114), pre-treatment then 40 μM ketoconazole): abolishes activity; IC50 in the FP assay (in words) [7]: increases the IC50; synergistic C. glabrata cell growth inhibition with azole antifungal agents [10]: abolishes activity |
| N#CCC(=O)NNC(=S)Nc1ccc(Cl)c(F)c1 [Compound A03, N-(4-Chloro-3-fluorophenyl)-2-(2-cyanoacetyl)hydrazinecarbothoamide] | – | – | 12.5 (≈ 3.58 µg/mL) | 12.5 (≈ 3.58 µg/mL) | 12.5 (≈ 3.58 µg/mL) | 12.5 (≈ 3.58 µg/mL) | 25 (≈ 7.17 µg/mL) | 50 (≈ 14.3 µg/mL) | 25 (≈ 7.17 µg/mL) | 25 (≈ 7.17 µg/mL) | – |
| N#CCC(=O)NNC(=S)Nc1ccc(C(F)(F)F)c(Cl)c1 [Compound A07, N-(3-Chloro-4-(trifluoromethyl)phenyl)-2-(2-cyanoacetyl) hydrazinecarbothioamide] | – | – | 3.12 (≈ 1.05 µg/mL) | 3.12 (≈ 1.05 µg/mL) | 6.25 (≈ 2.1 µg/mL) | 3.25 (≈ 1.09 µg/mL) | 3.12 (≈ 1.05 µg/mL) | 6.25 (≈ 2.1 µg/mL) | 3.25 (≈ 1.09 µg/mL) | 3.25 (≈ 1.09 µg/mL) | – |
| N#CCC(=O)NNC(=S)Nc1cc(Cl)cc(Cl)c1 [Compound A16] | – | – | 3.12 (≈ 0.947 µg/mL) | 3.12 (≈ 0.947 µg/mL) | 3.25 (≈ 0.985 µg/mL) | 3.25 (≈ 0.985 µg/mL) | 6.25 (≈ 1.89 µg/mL) | 12.5 (≈ 3.79 µg/mL) | 6.25 (≈ 1.89 µg/mL) | 6.25 (≈ 1.89 µg/mL) | – |
| N#CC1(C(=O)NNC(=S)Nc2ccc(Cl)c(Cl)c2)CC1 [Compound A18, 2-(1-Cyanocyclopropanecarbonyl)-N-(3,4-dichlorophenyl)hydrazinecarbothioamide] | – | – | 12.5 (≈ 4.12 µg/mL) | 6.25 (≈ 2.06 µg/mL) | 6.25 (≈ 2.06 µg/mL) | 12.5 (≈ 4.12 µg/mL) | 12.5 (≈ 4.12 µg/mL) | 25 (≈ 8.23 µg/mL) | 6.25 (≈ 2.06 µg/mL) | 6.25 (≈ 2.06 µg/mL) | – |
| N#CCC(=O)NNC(=S)Nc1cc(Cl)cc(C(F)(F)F)c1 [Compound A52-8] | – | – | 3.12 (≈ 1.05 µg/mL) | 3.12 (≈ 1.05 µg/mL) | 3.12 (≈ 1.05 µg/mL) | 3.12 (≈ 1.05 µg/mL) | 6.25 (≈ 2.1 µg/mL) | 12.5 (≈ 4.21 µg/mL) | 3.12 (≈ 1.05 µg/mL) | 3.12 (≈ 1.05 µg/mL) | – |
| N#CC1(C(=O)NNC(=S)Nc2ccc(Cl)c(Cl)c2)CCCCC1 [DFCI-1] | – | – | 6.25 (≈ 2.32 µg/mL) | 6.25 (≈ 2.32 µg/mL) | 3.12 (≈ 1.16 µg/mL) | 6.25 (≈ 2.32 µg/mL) | 6.25 (≈ 2.32 µg/mL) | 12.5 (≈ 4.64 µg/mL) | 12.5 (≈ 4.64 µg/mL) | 6.25 (≈ 2.32 µg/mL) | – |
| N#CC1(C(=O)NNC(=S)Nc2ccc(Cl)c(Cl)c2)CC1 [drawing 45] | 62 | 25 | – | – | – | – | – | – | – | – | CgCDR1 qRT-PCR (30 μM in PDR1 WT) (% DMSO + keto) ([5]; 30 μM compound, PDR1 WT, ketoconazole induced): 5 % DMSO + keto |
| N#CCC(=O)NNC(=S)Nc1ccc(Cl)c(F)c1 [drawing 46] | 54 | 30 | – | – | – | – | – | – | – | – | – |
| N#CCC(=O)NNC(=S)Nc1ccc(C(F)(F)F)c(Cl)c1 [drawing 47] | 40 | 21 | – | – | – | – | – | – | – | – | – |
| N#CCC(=O)NNC(=S)Nc1cc(Cl)cc(Cl)c1 [drawing 48] | 45 | 25 | – | – | – | – | – | – | – | – | – |
| N#CCC(=O)NNC(=S)Nc1cc(Cl)cc(C(F)(F)F)c1 [drawing 49] | 77 | 28 | – | – | – | – | – | – | – | – | – |
| N#CC1(C(=O)NNC(=S)Nc2ccc(Cl)c(Cl)c2)CCCCC1 [drawing 51] | 53 | 14 | – | – | – | – | – | – | – | – | – |
| OC(Cn1cncn1)(Cn1cncn1)c1ccc(F)cc1F [fluconazole, reference compound] | – | – | – | – | – | – | – | – | – | – | fungal load in bladder and kidney [13]: significantly reduces fungal burden in the bladder and kidney; survival of G. mellonella larvae ([14]; fluconazole 50 mg/kg alone): sensitive to fluconazole alone; survival of G. mellonella larvae ([14]; single agent (fluconazole 50 mg/kg or iKIX1 25 mg/kg) vs vehicle): did not significantly increase survival; tissue fungal burden ([15]; 25 mg/kg): poorly reduced tissue burden; tissue fungal burden in the kidney and spleen ([15]; 100 mg/kg): significantly reduced tissue fungal burden |
| CC(=O)N1CCN(c2ccc(OCC3COC(Cn4ccnc4)(c4ccc(Cl)cc4Cl)O3)cc2)CC1 (stereo not drawn) [ketoconazole, reference compound] | – | – | – | – | – | – | – | – | – | – | relative adherence to epithelial cells [16]: reduce adherence; relative adherence to epithelial cells ([16]; listed as Ketoconazole): reduced relative adherence to levels comparable to a PDR1 wild-type strain |
